Source: patent US4578383A, “CL 1565 antibiotic compounds” (priority 1984, dated 1986)
Read-outs that look alike come from different tables or passages of the source.

Tested on: P388 Lymphatic Leukemia
Assay type: in vivo, Mice
Description: The test method used is based on that described in Cancer Chemother. Reports 3:1-87 (part 3), 1972.

[1] = 3.1 mg/kg/day (CL 1565-T and CL 1565-B tables)
[2] = 6.3 mg/kg/day (CL 1565-T and CL 1565-B tables)
[3] = 12.5 mg/kg/day (CL 1565-T and CL 1565-B tables)

Compound	T/C × 100 [1]	T/C × 100 [2]	T/C × 100 [3]	T/C × 100 (toxicity noted) (25.0 mg/kg/day (CL 1565-B table))	T/C × 100 (25.0 mg/kg/day (CL 1565-T table))
CC=CC=CC=CC(O)CC(OP(=O)(O)O)C(C)(O)C=CC1CC=CC(=O)O1 (centres unmarked) [CL 1565-B]	129	142	178	Toxic	
CC(O)(C=CC1OC(=O)C=CC1O)C(CC(O)C=CC=CC=CCO)OP(=O)(O)O (centres unmarked) [CL 1565-T]	147	142	147		157
